48 compounds from the supplement of paper PMC10290057 can be followed below.

Structures are written as SMILES. Where a name gives a salt, the structure may show the parent alone.

Assay [1] has as its system HCT116. Description: efficacy (fitted maximal change in viability relative to DMSO control); higher = less cytotoxic (negative = loss of viability). The conditions noted are these: 48 h.
The subject of assay [2] is HCT116. The experiment in a line: AC50 cell viability (CellTiter-Glo); higher = less potent. The conditions noted are these: 48 h. For orientation: Cellular ATP, detected with luciferase, serves as a proxy for viable cell number.
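Wherever AC50 cell viability (CellTiter-Glo) is given: HCT116 colorectal carcinoma cells screened at five concentrations per compound, luminescent viability scaled between DMSO wells and empty wells on each plate, curves fitted per compound.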
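Wherever efficacy (fitted maximal change in viability relative to DMSO control) is given: Luminescence-based viability readout, five doses per compound, normalized against on-plate DMSO and empty-well controls, followed by dose-response curve fitting for every drug.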

Take `CO[C@H]1/C=C/O[C@@]2(C)Oc3c(C)c(O)c4c(c3C2=O)C2=NC3(CCN(CC(C)C)CC3)NC2=C(NC(=O)/C(C)=C/C=C/[C@H](C)[C@H](O)[C@@H](C)[C@@H](O)[C@@H](C)[C@H](OC(C)=O)[C@@H]1C)C4=O` [Rifabutin]: the efficacy in assay [1] was -60%. Further, the AC50 cell viability in assay [2] stood at 23.5 µM.
For the compound `Nc1nc2ccc(OC(F)(F)F)cc2s1` [Riluzole], in assay [1], the efficacy is -59.1%. Further, in assay [2], the AC50 cell viability was 10.5 µM.
`Cc1c(C(=O)NN2CCCCC2)nn(-c2ccc(Cl)cc2Cl)c1-c1ccc(Cl)cc1` [Rimonabant]: in assay [1], the efficacy was -93.4%. In assay [2], this compound yielded an AC50 cell viability of 23.5 µM.
Turning to `CN1CCC(C1CO)C2=C(O)C=C(O)C3=C2O\C(=C/C3=O)C4=CC=CC=C4Cl` (stereo unspecified) [Riviciclib (P276-00)], the efficacy in assay [1] is -73.4%. The compound also showed an AC50 cell viability in assay [2] of 0.372 µM.
The matching figures for `C[S+](=O)([O-])c1ccc([C@@H](CC2CCCC2)C(=O)Nc2nccs2)cc1` [Ro-28-1675]: -67.1% and 23.5 µM.
With `C=CC(=O)Nc1cccc(Nc2nc(Nc3ccc(N4CCN(C(C)=O)CC4)cc3OC)ncc2C(F)(F)F)c1` [Rociletinib], the efficacy in assay [1] is -112%. In assay [2], this compound yielded an AC50 cell viability of 8.33 µM.
As to `C[C@@H](OC[C@@]1(c2ccccc2)CC[C@]2(CCC(=O)N2)CN1)c1cc(C(F)(F)F)cc(C(F)(F)F)c1` [Rolapitant], the efficacy in assay [1] was -111%. In addition, the AC50 cell viability in assay [2] stood at 13.2 µM.
The matching figures for `C/C=C1\NC(=O)[C@H]2CSSCC/C=C\[C@H](CC(=O)N[C@H](C(C)C)C(=O)N2)OC(=O)[C@H](C(C)C)NC1=O` [Romidepsin]: -94.8% and 0.00742 µM.
With `C[C@@H](O)[C@@H](C)Oc1nc(Nc2ccc([S+](=N)([O-])C3CC3)cc2)ncc1C(F)(F)F` (stereo partly specified) [Roniciclib], in assay [1], the efficacy was -94%. Also, the AC50 cell viability in assay [2] came out at 18.6 µM.
Regarding `[O-]C(=O)C1=C(C(=C(Cl)C(=C1Cl)Cl)Cl)C/2=C/3\C=C(I)/C(=O)/C(=C3OC4=C2C=C(I)C(=C4I)[O-])I` [Rose Bengal disodium], in assay [1], the efficacy was -47%. Further, the AC50 cell viability in assay [2] amounted to 16.6 µM.
`C=C(C)[C@H]1Cc2c(ccc3c2O[C@@H]2COc4cc(OC)c(OC)cc4[C@@H]2C3=O)O1` [Rotenone]: the efficacy in assay [1] is -64.9%. The same compound returned an AC50 cell viability in assay [2] of 0.525 µM.
`CN(C)C[C@@H]1CC[N]2C=C(C3=C2C=CC=C3)C/4=C(/C(=O)NC4=O)C5=C[N](CCO1)C6=C5C=CC=C6` [Ruboxistaurin mesylate]: in assay [1], the efficacy was -102%. The AC50 cell viability in assay [2] was determined as 8.33 µM.
The like results for `CNCc1ccc(-c2[nH]c3cc(F)cc4c3c2CCNC4=O)cc1` [Rucaparib] were, in that order, -101% and 18.6 µM.
For the compound `N#CC[C@H](C1CCCC1)n1cc(-c2ncnc3[nH]ccc23)cn1` [Ruxolitinib], the efficacy in assay [1] was -67.4%. This compound also returned an AC50 cell viability in assay [2] of 11.8 µM.
With `CNC1CCC(N(Cc2cccc(-c3ccncc3)c2)C(=O)c2sc3ccccc3c2Cl)CC1` (stereo unspecified) [SAG], the efficacy in assay [1] is -98.5%. Also, in assay [2], the AC50 cell viability was found to be 16.6 µM.
`CCOc1cc(C(=O)Nc2ccc(Cl)c(-c3nc4ccccc4[nH]3)c2)cc(OCC)c1OCC` [SANT-2]: the efficacy in assay [1] was -37.4%. In assay [2], this compound returned an AC50 cell viability of 2.63 µM.
Consider `CN1C/C=C/CCOc2cccc(c2)-c2ccnc(n2)Nc2cccc(c2)C1` [SB-1317], for which the efficacy in assay [1] was -70.2%. For the same compound, the AC50 cell viability in assay [2] amounted to 0.059 µM.
For `O=C1\C=C(OC2=C1SC=C2C3=CC=C4OCCOC4=C3)\N5CCOCC5` [SF-2523], the efficacy in assay [1] was -69.9%. The AC50 cell viability in assay [2] worked out at 3.72 µM.
Take `CC(C)N(CCCNC(=O)Nc1ccc(C(C)(C)C)cc1)C[C@H]1O[C@@H](n2cc(Br)c3c(N)ncnc32)[C@H](O)[C@@H]1O` [SGC-0946]: the efficacy in assay [1] was -95.9%. Besides, the AC50 cell viability in assay [2] came out at 20.9 µM.
The matching figures for `CN1CCC(CNc2ccc3ncc(-c4cccc(OC(F)(F)F)c4)n3n2)CC1` [SGI-1776]: -102% and 6.61 µM.
Consider `Cc1c[nH]c2nc(Nc3ccc(N4CCN(C)CC4)c(F)c3)nc(-c3cccc(CC#N)c3)c12` [SGI-7079], for which the efficacy in assay [1] was -83.9%. Further, the AC50 cell viability in assay [2] stood at 0.525 µM.
With `N#C/C(=C(/N)Sc1ccc(N)cc1)c1ccccc1C(F)(F)F` [SL-327], the efficacy in assay [1] was -80.4%. This compound also registered an AC50 cell viability in assay [2] of 13.2 µM.
With `CN[C@@H](C)C(=O)N[C@H]1CCCC[C@H]2CC[C@@H](C(=O)N[C@@H](c3ccccc3)c3cn(CCCCc4ccc(CCCCn5cc([C@@H](NC(=O)[C@@H]6CC[C@@H]7CCCC[C@H](NC(=O)[C@H](C)NC)C(=O)N76)c6ccccc6)nn5)cc4)nn3)N2C1=O` [SM-164], in assay [1], the efficacy was -89.2%. This compound also displayed an AC50 cell viability in assay [2] of 23.5 µM.
For the compound `CCC1=C2CN3C(=O)\C4=C(/C=C3/C2=NC5=CC=C(O)C=C15)[C@@](O)(CC)C(=O)OC4` [SN-38], the efficacy in assay [1] is -79.2%. The compound further gave an AC50 cell viability in assay [2] of 0.0661 µM.
`O=C(Nc1cccc(Cl)c1)Nc1ncc(CCNc2ncnc3ccsc23)s1` [SNS-314]: the efficacy in assay [1] was -91.8%. In assay [2], this compound returned an AC50 cell viability of 18.6 µM.
With `C/C(=N\NC(=O)c1cccc([S+](=O)([O-])N2CCOCC2)c1)c1cc(Cl)ccc1O` [SP2509], the efficacy in assay [1] was -69.5%. In addition, in assay [2], the AC50 cell viability was 1.86 µM.
With `C/C(NNC(=O)c1cccc([S+](=O)([O-])N2CCOCC2)c1)=C1\C=C(Cl)C=CC1=O` [SP-2509], the efficacy in assay [1] was -72%. The same compound yielded an AC50 cell viability in assay [2] of 2.63 µM.
Take `COC1=CC=CC2=C1C(=NC(=N2)C3=CC=CS3)NN4C(=O)\C=C(C)/C4=O` [SPC-839]: in assay [1], the efficacy is -91.1%. In assay [2], this compound came in with an AC50 cell viability of 0.525 µM.
With `OC(c1ccc(-c2ccc(CN3CCN(Cc4ccncc4)CC3)cc2)c(F)c1)(C(F)(F)F)C(F)(F)F` [SR-2211], in assay [1], the efficacy is -44.3%. Also, the AC50 cell viability in assay [2] came out at 10.5 µM.
Consider `Cc1ccc(-c2ncn(-c3ccc(Nc4nccc(-c5cccc(N6CCOCC6)c5)n4)cc3)n2)cn1` [SR-3306], for which the efficacy in assay [1] was -85.8%. Also, the AC50 cell viability in assay [2] came to 1.48 µM.
In the case of `CCCCCNC(=O)N1CCC(CN(Cc2ccc(Cl)cc2)Cc2ccc([N+](=O)[O-])s2)C1` (stereo unspecified) [SR-9011], in assay [1], the efficacy is -71%. Besides, the AC50 cell viability in assay [2] came to 20.9 µM.
The matching figures for `O=C(Nc1ccccc1-c1cn2c(CN3CCNCC3)csc2n1)c1cnc2ccccc2n1` [SRT-1720]: -83.6% and 7.42 µM.
With `NC(=O)[C@H]1CCS[C@@H]2C[C@]3(CCCN3C(=O)Cc3ccc(NC(=O)COc4ccc(Cl)cc4Cl)cc3)C(=O)N12` [ST-2825], in assay [1], the efficacy was -68.6%. In assay [2], this compound had an AC50 cell viability of 10.5 µM.
`O=C(Nc1nnc(-c2ccco2)o1)c1cc(-c2ccccc2)nc2ccccc12` [STX-0119]: the efficacy in assay [1] is -69.9%. This compound yielded an AC50 cell viability in assay [2] of 14.8 µM.
Take `CN(C)[S+](=O)([O-])c1ccc2c(c1)C(=Cc1cc3c([nH]1)CCCC3)C(=O)N2` [SU-6656]: the efficacy in assay [1] was -34.2%. In assay [2], the AC50 cell viability was 0.118 µM.
In the case of `Cc1[nH]c(/C=C2\C(=O)Nc3ccc([S+](=O)([O-])N(C)c4cccc(Cl)c4)cc32)c(C)c1C(=O)N1CCN(C)CC1` [SU-MI-2], the efficacy in assay [1] was -113%. Moreover, the AC50 cell viability in assay [2] amounted to 14.8 µM.
In the case of `CCC(C1CCC(C)C(O1)C(C)C(O)C(C)C(=O)C(CC)C2OC\3(O[C@]4(CC[C@@](C)(O4)C5CC[C@@](O)(CC)C(C)O5)C(O)\C=C3)C(C)CC2C)C([O-])=O` (stereo partly specified) [Salinomycin], the efficacy in assay [1] is -98.3%. For the same compound, the AC50 cell viability in assay [2] was 13.2 µM.
`CN1CCN(CCOc2cc(OC3CCOCC3)c3c(Nc4c(Cl)ccc5c4OCO5)ncnc3c2)CC1` [Saracatinib]: the efficacy in assay [1] was -101%. The AC50 cell viability in assay [2] amounted to 18.6 µM.
Regarding `[O-][n+]1cccc(-c2nc3c(Cl)cccc3cc2[C@@H](Nc2ncnc3cccnc23)C(F)(F)F)c1` [Seletalisib], the efficacy in assay [1] was -49.3%. Also, the AC50 cell viability in assay [2] was determined as 18.6 µM.
As to `CC[C@H](CO)Nc1nc(NCc2ccccc2)c2ncn(C(C)C)c2n1` [Seliciclib], the efficacy in assay [1] was -84.6%. In assay [2], this compound registered an AC50 cell viability of 10.5 µM.
Turning to `O=C(/C=C\n1cnc(-c2cc(C(F)(F)F)cc(C(F)(F)F)c2)n1)NNc1cnccn1` [Selinexor], the efficacy in assay [1] is -93.1%. In assay [2], this compound gave an AC50 cell viability of 0.372 µM.
For `Cc1cc(F)c(C(=O)Nc2cccc(-c3nncn3C(C)C)n2)cc1-n1cnc(C2CC2)c1` [Selonsertib], the efficacy in assay [1] was -73.8%. The compound also returned an AC50 cell viability in assay [2] of 16.6 µM.
On to `Cn1cnc2c(F)c(Nc3ccc(Br)cc3Cl)c(C(=O)NOCCO)cc21` [Selumetinib], for which, in assay [1], the efficacy was -77%. Also, the AC50 cell viability in assay [2] was determined as 0.525 µM.
On to `CN1CCN(C(=O)c2ccc3cc(CCNc4ncnc5ccc(C#N)cc45)ccc3c2)CC1` [Senexin-B], for which the efficacy in assay [1] is -72.9%. In assay [2], this compound displayed an AC50 cell viability of 13.2 µM.
Regarding `C=C1/C(=C/C=C2\CCCC3(C)[C@@H]([C@H](C)/C=C/C=C/C(O)(CC)CC)CC[C@@H]23)C[C@@H](O)C[C@@H]1O` (stereo partly specified) [Seocalcitol], the efficacy in assay [1] was -31.2%. In assay [2], this compound gave an AC50 cell viability of 18.6 µM.
With `COCCn1c2c([n+](Cc3cnccn3)c1C)C(=O)c1ccccc1C2=O` [Sepantronium bromide], in assay [1], the efficacy is -93.8%. This compound also registered an AC50 cell viability in assay [2] of 0.00833 µM.
Take `Nc1nc2cc(-c3ccc4ncc(C(=O)N5CCOCC5)n4c3)ccc2o1` [Serabelisib]: the efficacy in assay [1] was -53.2%. In assay [2], this compound displayed an AC50 cell viability of 4.68 µM.
With `c1ccc2c(CCNc3ccc(Nc4ccncc4)cc3)c[nH]c2c1` [Serdemetan], the efficacy in assay [1] was -89.6%. This compound yielded an AC50 cell viability in assay [2] of 5.9 µM.
